Measured values published in patent US7173018B2, “Phospholipid derivatives of non-steroidal anti-inflammatory drugs” (D-Pharm, Ltd., priority 1998, dated 2007).
Values after ≈ are worked out from the molar mass of the structure shown.

Assays:
[1] = In vitro cleavage of DP-DFC to free diclofenac in rat brain homogenate; format: in vitro ADME; conditions: for Cleavage of diclofenac from its lipid conjugate: brain homogenate, 37° C., up to 6 hours
Method: (§1) The ability of the compounds of the invention to be cleaved to yield free diclofenac, was studied in vitro in homogenates of rat brain and liver. Two compounds were tested: the prodrug 1-Stearoyl-2-{4-[2-(2,6-dichloroanilino)-phenylacetamido]butanoyl}-sn-glycero-3-phosphocholine (DP-DFC; Z=3), and the compound 1-Stearoyl-2-{3-[2-(2,6-dichloroanilino)-phenylacetamido]propanoyl}-sn-glycero-3-phosphatidylcholine (DP-DFC; Z=2), comprising, respectively, a bridging group having a total of 4 and 3 carbon atoms.
(§2) Liver and brain were surgically removed, under pentobarbitone anesthesia, from male Sabra rats weighing 250–280 g. About 1–1.5 g samples from each tissue were homogenized in PBS pH=7.4 (Dulbecco) at a ratio of 1:9 w/v of tissue to buffer.
(§3) DP-DFC was added to each homogenate to a final concentration of 40 μg/ml. The mixtures were incubated at 37° C. in shaking for 1, 2, 3 and 6 hours, and then were placed on ice to stop the reaction.
(§4) The amounts of free diclofenac in 1 ml samples from either the brain or liver homogenates were determined by reverse phase HPLC assay. The amount of protein in each sample was assayed by the Lowry method.
(§5) The result for each time point represents the average of five repetitions using tissues from five individual animals.
(§6) In order to evaluate the effect of temperature on the reaction, a parallel set of incubations was carried out at 4° C.

[2] = In vitro cleavage of DP-DFC to free diclofenac in rat liver homogenate; format: in vitro ADME; conditions: 37° C., up to 6 hours
Method: as §1, §2, §3, §4, §5, §6

[3] = Octanol/saline distribution (partition coefficient Pc), shake-flask technique; conditions: for log Pc (octanol/saline distribution coefficient): 22° C., shake-flask
Method: In addition, the partition coefficient (Pc) values for these compounds, i.e their distribution ratios between the organic and the aqueous phases (octanol/saline), were calculated.
The distribution of the compounds between the organic and the aqueous phases was measured by the shake-flask technique. Five milliliters of octanol containing about 3 mg of the studied compound were mixed with 5 ml saline. The mixture was shaken overnight at 22° C. before the octanol and saline phases were separated. One ml from each phase was dissolved into an appropriate volume of ethanol so that the optical absorption of the obtained solution is in range of 0.1 to 1.0.
The coefficient Pc is calculated by the following ratio:
[formula] where Aoct is the optical absorption, at λmax, of the ethanol solution in which one ml of octanol phase is dissolved, V1 is the volume of this ethanol solution and l1 is the width (cm) of the cuvette used for measurement of the optical absorption.
Asal is the optical absorption, at λmax, of the ethanol solution in which the one ml of saline phase is dissolved, V2 is the volume of this ethanol solution and l2 is the width (cm) of the cuvette used for measurement of the optical absorption.

[4] = Solubility measurements of lipid derivatives in water, saline, ethanol and octanol; conditions: for solubility: 22 °C; for Solubility (mg/ml) Saline / Solubility (mg/ml) Water: 22° C.; a) gel, b) suspension obtained after filtration through 0.45 μm filter
Method: The solubility of several lipid derivatives of diclofenac, indomethacin, ibuprofen, naproxen and 6-methoxy-2-naphthylacetic acid was determined at room temperature (22° C.) in aqueous solutions (water and saline) and in organic solutions (ethanol and octanol). In addition, the partition coefficient (Pc) values for these compounds, i.e their distribution ratios between the organic and the aqueous phases (octanol/saline), were calculated.

| SMILES | Cleavage of diclofenac from its lipid conjugate [1] | Cleavage of diclofenac from its lipid conjugate [2] | logD [3] | solubility ([4]; saline, saline or isotonic) [µg/mL] | solubility ([4]; water) [µg/mL] | Cleavage of prodrug to DFC on cooling to 4° C. ([1]; parallel set of incubations in homogenates at 4° C. (data not shown)) | log Pc (octanol/saline distribution coefficient) [3] | Solubility (mg/ml) Saline [4] | Solubility (mg/ml) Water [4] |
| --- | --- | --- | --- | --- | --- | --- | --- | --- | --- |
| CCCCCCCCCCCCCCCCCC(=O)OC[C@H](COP(=O)([O-])OCC[N+](C)(C)C)OC(=O)CCNC(=O)Cc1ccccc1Nc1c(Cl)cccc1Cl [DCF n=2, 1-Stearoyl-2-{3-[2-(2,6-dichloroanilino)phenylacetamido]propanoyl}-sn-glycero-3-phosphocholine] | not | not | 2.8 ± 0.1 | 2 (≈ 2.29 µM) | 3 (≈ 3.44 µM) |  |  |  |  |
| CCCCCCCCCCCCCCCCCC(=O)OC[C@H](COP(=O)([O-])OCC[N+](C)(C)C)OC(=O)CCCNC(=O)Cc1ccccc1Nc1c(Cl)cccc1Cl [DCF n=3, 1-Stearoyl-2-{4-[2-(2,6-dichloroanilino)phenylacetamido]butanoyl}-sn-glycero-3-phosphocholine] | significant cleavage | significant cleavage |  | 2 (≈ 2.25 µM) | 2 (≈ 2.25 µM) | completely inhibited | ≧3 |  |  |
| CCCCCCCCCCCCCCCCCC(=O)OC[C@H](COP(=O)([O-])OCC[N+](C)(C)C)OC(=O)CCCCNC(=O)Cc1ccccc1Nc1c(Cl)cccc1Cl [DCF n=4, 1-Stearoyl-2-{5-[2-(2,6-dichloroanilino)phenylacetamido]valeroyl}-sn-glycero-3-phosphocholine] |  |  |  | 2 (≈ 2.22 µM) | 2 (≈ 2.22 µM) |  | ≧3 |  |  |
| CCCCCCCCCCCCCCCCCC(=O)OC[C@H](COP(=O)([O-])OCC[N+](C)(C)C)OC(=O)CCCCCCCNC(=O)Cc1ccccc1Nc1c(Cl)cccc1Cl [DCF n=7, 1-Stearoyl-2-{8-[2-(2,6-dichloroanilino)phenylacetamido]octanoyl}-sn-glycero-3-phosphocholine] |  |  |  | 1 (≈ 1.06 µM) | 1 (≈ 1.06 µM) |  | ≧3 |  |  |
| CCCCCCCCCCCCCCCCCC(=O)OC[C@H](COP(=O)([O-])OCC[N+](C)(C)C)OC(=O)CCCCCCCCCCCNC(=O)Cc1ccccc1Nc1c(Cl)cccc1Cl [DCF n=11, 1-Stearoyl-2-{12-[2-(2,6-dichloroanilino)phenylacetamido]dodecanoyl}-sn-glycero-3-phosphocholine] |  |  |  | < 1 | < 1 |  | ≧2.5 |  |  |
| CCCCCCCCCCCCCCCCCC(=O)OC[C@H](COP(=O)([O-])OCC[N+](C)(C)C)OC(=O)CCNC(=O)C(C)c1ccc(CC(C)C)cc1 (stereo partly drawn) [Ibu n=2, 1-Stearoyl-2-{3-[α-methyl-4-(2-methylpropyl)benzeneacetamido]propanoyl}-sn-glycero-3-phosphocholine] |  |  | 1.8 | 300 (≈ 383 µM) | 200 (≈ 255 µM) |  |  |  |  |
| CCCCCCCCCCCCCCCCCC(=O)OC[C@H](COP(=O)([O-])OCC[N+](C)(C)C)OC(=O)CCCCCNC(=O)C(C)c1ccc(CC(C)C)cc1 (stereo partly drawn) [Ibu n=5, 1-Stearoyl-2-{6-[α-methyl-4-(2-methylpropyl)benzeneacetamido]hexanoyl}-sn-glycero-3-phosphocholine] |  |  |  | 500 (≈ 606 µM) | 500 (≈ 606 µM) |  | ≧3 |  |  |
| CCCCCCCCCCCCCCCCCC(=O)OC[C@H](COP(=O)([O-])OCC[N+](C)(C)C)OC(=O)CCNC(=O)Cc1c(C)n(C(=O)c2ccc(Cl)cc2)c2ccc(OC)cc12 [Indo n=2, 1-Stearoyl-2-{3-[1-(p-chlorobenzoyl)-5-methoxy-2-methyl-3-indolylacetamido]propanoyl}-sn-glycero-3-phosphocholine] |  |  | 2.5 | ~1500 (≈ 1610 µM) | < 900 |  |  |  |  |
| CCCCCCCCCCCCCCCCCC(=O)OC[C@H](COP(=O)([O-])OCC[N+](C)(C)C)OC(=O)CCCNC(=O)Cc1c(C)n(C(=O)c2ccc(Cl)cc2)c2ccc(OC)cc12 [Indo n=3, 1-Stearoyl-2-{4-[1-(p-chlorobenzoyl)-5-methoxy-2-methyl-3-indolylacetamido]butanoyl}-sn-glycero-3-phosphocholine] |  |  | 2.5 | ~1500 (≈ 1580 µM) | < 600 |  |  |  |  |
| CCCCCCCCCCCCCCCCCC(=O)OC[C@H](COP(=O)([O-])OCC[N+](C)(C)C)OC(=O)CCCCNC(=O)Cc1c(C)n(C(=O)c2ccc(Cl)cc2)c2ccc(OC)cc12 [Indo n=4, 1-Stearoyl-2-{5-[1-(p-chlorobenzoyl)-5-methoxy-2-methyl-3-indolylacetamido]valeroyl}-sn-glycero-3-phosphocholine] |  |  |  | ~100 (≈ 104 µM) | < 10 |  | 2.9 |  |  |
| CCCCCCCCCCCCCCCCCC(=O)OC[C@H](COP(=O)([O-])OCC[N+](C)(C)C)OC(=O)CCCCCNC(=O)Cc1c(C)n(C(=O)c2ccc(Cl)cc2)c2ccc(OC)cc12 [Indo n=5, 1-Stearoyl-2-{6-[1-(p-chlorobenzoyl)-5-methoxy-2-methyl-3-indolylacetamido]hexanoyl}-sn-glycero-3-phosphocholine] |  |  | 3.2 | ~10 (≈ 10.2 µM) | < 10 |  |  |  |  |
| CCCCCCCCCCCCCCCCCC(=O)OC[C@H](COP(=O)([O-])OCC[N+](C)(C)C)OC(=O)CCCCCCCNC(=O)Cc1c(C)n(C(=O)c2ccc(Cl)cc2)c2ccc(OC)cc12 [Indo n=7, 1-Stearoyl-2-{8-[1-(p-chlorobenzoyl)-5-methoxy-2-methyl-3-indolylacetamido]octanoyl}-sn-glycero-3-phosphocholine] |  |  | 3.7 |  | ~5 (≈ 4.98 µM) |  |  |  |  |
| CCCCCCCCCCCCCCCCCC(=O)OC[C@H](COP(=O)([O-])OCC[N+](C)(C)C)OC(=O)CCNC(=O)[C@@H](C)c1ccc2cc(OC)ccc2c1 [Nap n=2, 1-Stearoyl-2-{3-[(S)-6-methoxy-α-methyl-2-naphtaleneacetamido]propanoyl}-sn-glycero-3-phosphocholine] |  |  |  |  |  |  | ≧3 | 0.06^a) mg/ml | 0.01^a) mg/ml |
| CCCCCCCCCCCCCCCCCC(=O)OC[C@H](COP(=O)([O-])OCC[N+](C)(C)C)OC(=O)CCCNC(=O)[C@@H](C)c1ccc2cc(OC)ccc2c1 [Nap n=3, 1-Stearoyl-2-{4-[(S)-6-methoxy-α-methyl-2-naphtaleneacetamido]butanoyl}-sn-glycero-3-phosphocholine] |  |  |  |  |  |  | ≧3 | 0.09^a) mg/ml | 0.12^a) mg/ml |
| CCCCCCCCCCCCCCCCCC(=O)OC[C@H](COP(=O)([O-])OCC[N+](C)(C)C)OC(=O)CCCCCNC(=O)[C@@H](C)c1ccc2cc(OC)ccc2c1 [Nap n=5, 1-Stearoyl-2-{6-[(S)-6-methoxy-α-methyl-2-naphtaleneacetamido]hexanoyl}-sn-glycero-3-phosphocholine] |  |  |  |  |  |  | ≧3 | 0.2^a) mg/ml | 0.2^a) mg/ml |
